Laboratory results reported in patent US20230404913A1, “PHARMACEUTICAL FORMULATIONS FOR TREATING DISEASES ASSOCIATED WITH VOLTAGE-GATED SODIUM CHANNELS” (Xenon Pharmaceuticals, Inc., priority 2020, published 2023).
Read-outs that look alike come from different tables or passages of the source.

How the values were obtained:
[1] = Pharmacokinetic study, 3-period crossover, plasma concentrations of Compound A by LC-MS/MS; assay type: in vivo, human; details: for AUC(0-inf) / AUC(0-t): human, plasma, oral, 50 mg, pediatric formulation, 50 mg single dose; for AUC(0-inf): read-out: AUC0-inf, mean; for AUC(0-t): read-out: AUC0-t, mean
Protocol: (§1) In this single center, open-label, randomized study, 24 subjects (8 per each arm) received Compound A adult immediate release tablet or granular formulation suitable for reconstitution formulation in a fasted or fed state (high fat meal) in a 3-period, 3-sequence crossover design. Compound A was formulated as a granular formulation suitable for reconstitution (“Compound A pediatric formulation”) as described herein.
(§2) A 50 mg dose was used in this adult PK study.
For each study period, subjects received one of the 3 following treatments:
(§3) Treatment A: Single doses of 50 mg Compound A pediatric formulation (1 sachet of granules) under fed conditions.
(§4) Treatment B: Single doses of 50 mg Compound A pediatric formulation (1 sachet of granules) under fasting conditions.
(§5) Treatment C: Single doses of 50 mg Compound A adult tablet formulation (1×50 mg IR tablet) under fasting conditions.
Three groups of 8 subjects were randomized to one of the following 3 sequences.
Following an overnight fast of at least 10 hours, subjects received a standardized high-fat, high calorie meal 30 minutes before administration. Subjects must have eaten the total content of this meal in 30 minutes or less.
Thirty minutes after the start of breakfast, subjects were administered the suspension (the contents of one sachet of the Compound A pediatric formulation [granules for oral suspension] was mixed thoroughly with 120 mL of water at ambient temperature). Thereafter, the glass was rinsed twice with approximately 60 mL of water at ambient temperature and the subject was asked to drink the 60 mL of suspension each time. A total of approximately 240 mL of water was administered with the formulation within 5 minutes.
Additional food was then withheld for at least 4 hours following administration. Water was provided as needed until 1 hour pre-dose. Water was allowed beginning 1 hour after the administration of the drug.
Subjects fasted overnight for a minimum of 10 hours prior to dosing.
Subjects were administered the Compound A suspension (the contents of one sachet [granules for oral suspension] was mixed thoroughly with 120 mL of water at ambient temperature). Thereafter, the glass was rinsed twice with approximately 60 mL of water at ambient temperature and the subject was asked to drink the 60 mL of suspension each time. A total of approximately 240 mL of water was administered with the formulation within 5 minutes.
Fasting continued for at least 4 hours following Compound A administration. Water was provided as needed until 1 hour pre-dose. Water was allowed beginning 1 hour after the administration of the drug.
A single dose of the Compound A IR tablet was administered with approximately 240 mL of water, starting at 09:00, to 1 subject per 2 minute intervals.
Fasting continued for at least 4 hours following administration. Water was provided as needed until 1 hour pre-dose. Water was allowed beginning 1 hour after the administration of the drug.
Serial PK samples were obtained pre-dose and at specific timepoints through 48 h post-dose Plasma concentrations of Compound A were determined using validated liquid chromatography with tandem mass spectrometry method.

[2] = Pharmacokinetic study, urinary excretion of unchanged Compound A; assay type: in vivo, human; details: for CL renal: human, urine, oral, 50 mg
Protocol: as §1, §2, §3, §4, §5
Overall (based on data from Cohorts 1 and 2), the fraction excreted in urine is less than 0.1%, thus the contribution of the urinary excretion in the disposition and elimination of the Compound A as a parent compound is negligible. The PK and statistical analysis were performed including all subjects with measurable pre-dose concentrations.

[3] = pediatric formulation 50 mg, fed vs fasted

Cc1cc(S(=O)(=O)Nc2cscn2)c(F)cc1N(C)[C@H]1CCN(Cc2ccccc2)C1 [Compound A, (S)-4-((1-benzylpyrrolidin-3-yl)(methyl)amino)-2-fluoro-5-methyl-N-(thiazol-4-yl)benzenesulfonamide]
AUC(0-inf) ([1]; fasting): 11300 ng·h/mL
AUC(0-t) ([1]; fasting): 11100 ng·h/mL
AUC(0-inf) ([1]; fed (high-fat meal)): 11800 ng·h/mL
AUC(0-t) ([1]; fed (high-fat meal)): 11700 ng·h/mL
intra-subject CV % for AUC0-inf [1, 3]: 9%
intra-subject CV % for AUC0-t [1, 3]: 11%
GMR for AUC0-inf ([1]; pediatric formulation 50 mg, fed vs fasted, 90% CI 97.98-107.58%): 102.67%
GMR for AUC0-t ([1]; pediatric formulation 50 mg, fed vs fasted, 90% CI 98.23-109.57%): 103.74%
CL renal ([2]; pediatric formulation 50 mg, fasting): 0.05 mL/min
CL renal ([2]; pediatric formulation 50 mg, fed): 0.055 mL/min
fraction excreted in urine ([2]; overall, based on data from Cohorts 1 and 2): less than 0.1%
GMR for CLr ([2]; pediatric formulation 50 mg, fed vs fasting): 115.56%
